# Assay results published in PMC12028158, “Synthesis and In Vitro Evaluation of the Anticancer Effect of Novel Phosphonium Vindoline Derivatives” (International Journal of Molecular Sciences, 2025).
# Read-outs that look alike come from different tables or passages of the source.
# What was measured:
# Type in all cases: cell-based
# SR = assay: NCI60 five-dose screen; settings: Homo sapiens, Leukemia, five-dose, read-out: GI50
# HOP-62 = assay: NCI60 five-dose screen; settings: Homo sapiens
# NCI-H23 = assay: NCI60 five-dose screen; settings: Homo sapiens
# NCI-H460 = assay: NCI60 five-dose screen; settings: Homo sapiens
# KM12 [1] = assay: NCI60 five-dose screen; settings: Homo sapiens
# SW-620 [2] = assay: NCI60 five-dose screen; settings: Homo sapiens
# SNB-75 = assay: NCI60 five-dose screen; settings: Homo sapiens
# LOX IMVI = assay: NCI60 five-dose screen; settings: Homo sapiens
# MDA-MB-435 = assay: NCI60 five-dose screen; settings: Homo sapiens
# SK-MEL-2 = assay: NCI60 five-dose screen; settings: Homo sapiens
# SK-MEL-5 = assay: NCI60 five-dose screen; settings: Homo sapiens
# UACC-257 [3] = assay: NCI60 five-dose screen; settings: Homo sapiens
# OVCAR-4 = assay: NCI60 five-dose screen; settings: Homo sapiens
# 786-0 = assay: NCI60 five-dose screen; settings: Homo sapiens
# CAKI-1 = assay: NCI60 five-dose screen; settings: Homo sapiens
# SN12C = assay: NCI60 five-dose screen; settings: Homo sapiens
# UO-31 = assay: NCI60 five-dose screen; settings: Homo sapiens
# PC-3 [4] = assay: NCI60 five-dose screen; settings: Homo sapiens
# DU-145 = assay: NCI60 five-dose screen; settings: Homo sapiens
# MCF7 = assay: NCI60 five-dose screen; settings: Homo sapiens
# MDA-MB231ATCC = assay: NCI60 five-dose screen; settings: Homo sapiens, MDA-MB-231
# [5] = system: Non-small Cell Lung Cancer panel; assay: NCI60 five-dose screen, panel mean; settings: Homo sapiens
# Melanoma panel = assay: NCI60 five-dose screen, panel mean; settings: Homo sapiens
# K-562 = assay: NCI60 one-dose screen; settings: Homo sapiens
# MOLT-4 = assay: NCI60 one-dose screen; settings: Homo sapiens
# RPMI-8226 = assay: NCI60 one-dose screen; settings: Homo sapiens
# EKVX = assay: NCI60 one-dose screen; settings: Homo sapiens, read-out: Growth percent
# HOP-92 = assay: NCI60 one-dose screen; settings: Homo sapiens
# COLO 205 = assay: NCI60 one-dose screen; settings: Homo sapiens
# KM12 [6] = assay: NCI60 one-dose screen; settings: Homo sapiens
# SW-620 [7] = assay: NCI60 one-dose screen; settings: Homo sapiens
# SF-539 = assay: NCI60 one-dose screen; settings: Homo sapiens
# UACC-257 [8] = assay: NCI60 one-dose screen; settings: Homo sapiens
# PC-3 [9] = assay: NCI60 one-dose screen; settings: Homo sapiens; PC-3, 10 μM, one-dose; read-out: Growth percent
# [10] = system: 60 human tumor cell lines (NCI60); assay: NCI60 one-dose screen, overall mean; settings: for activity at 10 µM: Homo sapiens, read-out: Mean growth percent
# [11] = system: 60 human tumor cell lines (NCI60); assay: NCI60 five-dose screen, overall mean
# OVCAR-5 = assay: NCI60 one-dose screen; settings: Homo sapiens
# T-47D = assay: NCI60 one-dose screen; settings: Homo sapiens, T47D, read-out: Growth percent
# [12] = K562, K-562, 10 μM, one-dose, read-out: Growth percent
# [13] = MOLT-4, 10 μM, one-dose, read-out: Growth percent
# [14] = RPMI-8226, 10 μM, one-dose, read-out: Growth percent
# [15] = HOP-92, 10 μM, one-dose, read-out: Growth percent
# [16] = COLO 205, 10 μM, one-dose, read-out: Growth percent
# [17] = KM12, 10 μM, one-dose, read-out: Growth percent
# [18] = SW-620, 10 μM, one-dose, read-out: Growth percent
# [19] = SF-539, 10 μM, one-dose, read-out: Growth percent
# [20] = UACC-257, 10 μM, one-dose, read-out: Growth percent
# [21] = mean over 60 cell lines, 10 μM, one-dose
compound,measurement,setting,value
CC[C@]12C=CCN3CC[C@@]4(c5ccc(OC)cc5N(C)[C@H]4[C@@](O)(C(=O)OC)[C@@H]1OC(=O)CCC[P+](c1cc(C)c(OC)c(C)c1)(c1cc(C)c(OC)c(C)c1)c1cc(C)c(OC)c(C)c1)[C@@H]32 [9e],GI50,SR,144 nM
same,GI50,"HOP-62; HOP-62, Non-small Cell Lung Cancer, five-dose, read-out: GI50",173 nM
same,GI50,"NCI-H23; NCI-H23, Non-small Cell Lung Cancer, five-dose, read-out: GI50",183 nM
same,GI50,"NCI-H460; NCI-H460, Non-small Cell Lung Cancer, five-dose, read-out: GI50",229 nM
same,GI50,"KM12 [1]; KM12, KM12, Colon Cancer, five-dose, read-out: GI50",47 nM
same,GI50,"KM12 [1]; KM12, colon cancer KM12, text, read-out: GI50",< 100 nM
same,GI50,"SW-620 [2]; SW-620, Colon Cancer, five-dose, read-out: GI50",245 nM
same,GI50,"SNB-75; SNB-75, CNS Cancer, five-dose, read-out: GI50",195 nM
same,GI50,"LOX IMVI; Melanoma, five-dose, read-out: GI50",145 nM
same,GI50,"MDA-MB-435; MDA-MB-435, Melanoma, five-dose, read-out: GI50",231 nM
same,GI50,"SK-MEL-2; SK-MEL-2, SK-MEL-2, Melanoma, five-dose, read-out: GI50",60 nM
same,GI50,"SK-MEL-2; SK-MEL-2, melanoma SK-MEL-2, text, read-out: GI50",< 100 nM
same,GI50,"SK-MEL-5; SK-MEL-5, Melanoma, five-dose, read-out: GI50",138 nM
same,GI50,"UACC-257 [3]; UACC-257, UACC-257, Melanoma, five-dose, read-out: GI50",38 nM
same,GI50,"UACC-257 [3]; UACC-257, melanoma UACC-257, text, read-out: GI50",< 100 nM
same,GI50,"OVCAR-4; OVCAR-4, Ovarian Cancer, five-dose, read-out: GI50",271 nM
same,GI50,"786-0; 786-0, Renal Cancer, five-dose, read-out: GI50",239 nM
same,GI50,"CAKI-1; CAKI-1, Renal Cancer, five-dose, read-out: GI50",313 nM
same,GI50,"SN12C; Renal Cancer, five-dose, read-out: GI50",159 nM
same,GI50,"UO-31; UO-31, Renal Cancer, five-dose, read-out: GI50",1480 nM
same,GI50,"PC-3 [4]; PC-3, Prostate Cancer, five-dose, read-out: GI50",192 nM
same,GI50,"DU-145; DU-145, Prostate Cancer, five-dose, read-out: GI50",300 nM
same,GI50,"MCF7; MCF7, MCF7, Breast Cancer, five-dose, read-out: GI50",44 nM
same,GI50,"MCF7; MCF7, breast cancer MCF7, text, read-out: GI50",< 100 nM
same,GI50,"MDA-MB231ATCC; MDA-MB231ATCC, Breast Cancer, five-dose, read-out: GI50",293 nM
same,GI50,"[5]; mean over Non-small Cell Lung Cancer panel, read-out: Mean GI50",230 nM
same,GI50,"Melanoma panel; mean over Melanoma panel, read-out: Mean GI50",180 nM
same,activity at 10 µM,K-562; [12],-97.5%
same,activity at 10 µM,MOLT-4; [13],-98.3%
same,activity at 10 µM,RPMI-8226; [14],-98.3%
same,activity at 10 µM,"EKVX; 10 μM, one-dose",-98.2%
same,activity at 10 µM,HOP-92; [15],-98.9%
same,activity at 10 µM,COLO 205; [16],-96.6%
same,activity at 10 µM,KM12 [6]; [17],-95%
same,activity at 10 µM,SW-620 [7]; [18],-95.8%
same,activity at 10 µM,SF-539; [19],-97.2%
same,activity at 10 µM,UACC-257 [8]; [20],-99.3%
same,activity at 10 µM,PC-3 [9],-97.7%
same,activity at 10 µM,[10]; [21],-97.1%
same,Mean growth percent,[10]; [21],−97.13%
same,average reduction / average cell death,"[10]; one-dose, 10 µM, average over cell lines",more than 70%
"CC[C@]12C=CCN3CC[C@@]4(c5ccc(OC)cc5N(C)[C@H]4[C@@](O)(C(=O)OC)[C@@H]1OC(=O)CCCC[P+](c1ccccc1)(c1ccccc1)c1ccccc1)[C@@H]32 [compound 4, reference compound]",GI50,HOP-62; HOP-62,2600 nM
same,GI50,NCI-H23; NCI-H23,1220 nM
same,GI50,NCI-H460; NCI-H460,2110 nM
same,GI50,KM12 [1]; KM12,442 nM
same,GI50,SW-620 [2]; SW-620,1180 nM
same,GI50,SNB-75; SNB-75,221 nM
same,GI50,LOX IMVI,1170 nM
same,GI50,MDA-MB-435; MDA-MB-435,357 nM
same,GI50,SK-MEL-2; SK-MEL-2,279 nM
same,GI50,SK-MEL-5; SK-MEL-5,1710 nM
same,GI50,UACC-257 [3]; UACC-257,215 nM
same,GI50,OVCAR-4; OVCAR-4,326 nM
same,GI50,786-0; 786-0,2900 nM
same,GI50,CAKI-1; CAKI-1,2820 nM
same,GI50,SN12C,467 nM
same,GI50,UO-31; UO-31,12200 nM
same,GI50,PC-3 [4]; PC-3,369 nM
same,GI50,DU-145; DU-145,763 nM
same,GI50,MCF7; MCF7,322 nM
same,GI50,MDA-MB231ATCC,370 nM
same,GI50,[5]; read-out: GI50 Mean,1440 nM
same,GI50,Melanoma panel; read-out: GI50 Mean,750 nM
same,GI50,"[11]; read-out: GI50 Mean, mean over all 60 human cancer cell lines",3520 nM
same,activity at 10 µM,"K-562; K562, read-out: Growth percent",21.7%
same,activity at 10 µM,"MOLT-4; MOLT-4, read-out: Growth percent",5.66%
same,activity at 10 µM,"RPMI-8226; RPMI-8226, read-out: Growth percent",15.4%
same,activity at 10 µM,EKVX,56.1%
same,activity at 10 µM,"HOP-92; HOP-92, read-out: Growth percent",-30%
same,activity at 10 µM,"COLO 205; COLO 205, read-out: Growth percent",-93.7%
same,activity at 10 µM,"KM12 [6]; KM12, read-out: Growth percent",3.15%
same,activity at 10 µM,"SW-620 [7]; SW-620, read-out: Growth percent",29.4%
same,activity at 10 µM,"SF-539; SF-539, read-out: Growth percent",19%
same,activity at 10 µM,"UACC-257 [8]; UACC-257, read-out: Growth percent",2.15%
same,activity at 10 µM,"OVCAR-5; OVCAR-5, read-out: Growth percent",23.8%
same,activity at 10 µM,T-47D,4.99%
same,activity at 10 µM,[10]; 60 cell,11.9%
CCC12C=CCN3CCC4(c5ccc(OC)cc5N(C)C4C(O)(C(=O)OC)C1OC(=O)c1ccc(C[P+](c4ccccc4)(c4ccccc4)c4ccccc4)cc1)C32 (stereo not shown) [compound 12],GI50,"HOP-62; HOP-62, Non-small Cell Lung Cancer, read-out: GI50",2670 nM
same,GI50,"NCI-H23; NCI-H23, Non-small Cell Lung Cancer, read-out: GI50",2810 nM
same,GI50,"NCI-H460; NCI-H460, Non-small Cell Lung Cancer, read-out: GI50",1660 nM
same,GI50,"KM12 [1]; KM12, KM12, Colon Cancer, read-out: GI50",514 nM
same,GI50,"SW-620 [2]; SW-620, Colon Cancer, read-out: GI50",1500 nM
same,GI50,"SNB-75; SNB-75, CNS Cancer, read-out: GI50",1110 nM
same,GI50,"LOX IMVI; Melanoma, read-out: GI50",1820 nM
same,GI50,"MDA-MB-435; MDA-MB-435, Melanoma, read-out: GI50",483 nM
same,GI50,"SK-MEL-2; SK-MEL-2, SK-MEL-2, Melanoma, read-out: GI50",1270 nM
same,GI50,"SK-MEL-5; SK-MEL-5, Melanoma, read-out: GI50",1210 nM
same,GI50,"UACC-257 [3]; UACC-257, UACC-257, Melanoma, read-out: GI50",918 nM
same,GI50,"OVCAR-4; OVCAR-4, Ovarian Cancer, read-out: GI50",1050 nM
same,GI50,"786-0; 786-0, Renal Cancer, read-out: GI50",3580 nM
same,GI50,"CAKI-1; CAKI-1, Renal Cancer, read-out: GI50",3260 nM
same,GI50,"SN12C; Renal Cancer, read-out: GI50",708 nM
same,GI50,"UO-31; UO-31, Renal Cancer, read-out: GI50",20000 nM
same,GI50,"PC-3 [4]; PC-3, Prostate Cancer, read-out: GI50",657 nM
same,GI50,"DU-145; DU-145, Prostate Cancer, read-out: GI50",1610 nM
same,GI50,"MCF7; MCF7, MCF7, Breast Cancer, read-out: GI50",442 nM
same,GI50,"MDA-MB231ATCC; MDA-MB231ATCC, Breast Cancer, read-out: GI50",686 nM
same,GI50,"[5]; mean over Non-small Cell Lung Cancer panel, read-out: GI50 Mean",2050 nM
same,GI50,"Melanoma panel; mean over Melanoma panel, read-out: GI50 Mean",1030 nM
same,GI50,"[11]; mean over all 60 human cancer cell lines, read-out: GI50 Mean",4320 nM
same,activity at 10 µM,K-562; [12],-54.9%
same,activity at 10 µM,MOLT-4; [13],-53%
same,activity at 10 µM,RPMI-8226; [14],-50.8%
same,activity at 10 µM,"EKVX; 10 μM, one-dose",28.7%
same,activity at 10 µM,HOP-92; [15],-73.4%
same,activity at 10 µM,COLO 205; [16],-87.2%
same,activity at 10 µM,KM12 [6]; [17],-65.8%
same,activity at 10 µM,SW-620 [7]; [18],-66%
same,activity at 10 µM,SF-539; [19],-90.6%
same,activity at 10 µM,UACC-257 [8]; [20],-67.6%
same,activity at 10 µM,"OVCAR-5; OVCAR-5, 10 μM, one-dose, read-out: Growth percent",2.52%
same,activity at 10 µM,PC-3 [9],-21.9%
same,activity at 10 µM,"T-47D; T-47D, 10 μM, one-dose",7.1%
same,activity at 10 µM,[10]; [21],-37.1%
same,cytotoxicity (in words),"[10]; one-dose, 10 µM",moderate cytotoxicity
